Experiments:
[1] = test system: Breast cancer cell line MDA-MB-231; experiment: apoptosis by cell death detection ELISA after antisense oligonucleotide transfection; format: cell-based, human; conditions: MDA-MB-231 cells, 3 days after transfection, compared to control (100%)
SUV39H1 = experiment: quantitative PCR of SUV39H1 expression (RNA) after antisense oligonucleotide transfection; format: cell-based, human; conditions: MDA-MB-231 cells, 7 hours after transfection, compared to control (reverse) oligonucleotide (100%)
Description: First, the antisense (SEQ ID NO: 4) to the full-length sequence shown by SEQ ID NO: 3 was designed. Thereafter, phosphorothioated oligonucleotide was synthesized, purified on HPLC and used for the transfection test (Amersham Pharmacia Biotech). For control oligonucleotide, a reverse sequence (SEQ ID NO: 5) of the base sequence represented by SEQ ID NO: 4 was likewise phosphorothioated, purified on HPLC and used for the test (Amersham Pharmacia Biotech).
Breast cancer cell line MDA-MB-231 (In Vitro, 14 (11), 911-915, 1978, purchased from ATCC) was used as cells to be tested and on the day before transfecting the oligonucleotide, the cells were plated in 18×10^3 on a 24-well plate (manufactured by Falcon). To transfect the oligonucleotide, OligofectAMINE (manufactured by Invitrogen) was used to follow its protocol. In accordance with the protocol of RNeasy mini kit (manufactured by Qiagen), RNA was extracted 7 hours after the transfection and cDNA was prepared using TaqMan Reverse Transcription Reagents (manufactured by Applied Biosystems). Using 2 primers (SEQ ID NO: 6 and SEQ ID NO: 7) and probe (SEQ ID NO: 8; Amersham Pharmacia Biotech), quantitative PCR was carried out by ABI PRISM TM 7700 Sequence Detector (manufactured by Applied Biosystems). […]

antisense: phosphorothioated antisense oligonucleotide (SEQ ID NO: 4) to the full-length SUV39H1 sequence shown by SEQ ID NO: 3 (antisense ATGCGTCCCAGATGGCTGCG; all phosphorothioate, sugars by position and methylation of C not given here)
apoptosis [1]: 213%
expression (RNA) of SUV39H1 (SUV39H1): 70%

From US20050106152A1, “Preventives/remedies for cancer” (priority 2001, published 2005)
